This is an account of results in US9340590B2 (priority 2011, dated 2016).

pIC50: −log10 of the molar value. Positions of bridges follow the written chain, without caps; N, C: chain ends. Non-standard residues stand in square brackets, D forms with d. Residues, ends and D or L forms follow the SMILES beside them. Phg = N[C@H](C(=O)O)c1ccccc1

Common to all, as to assay: cell-based
For one test, the target named is hNav1.3 (Homo sapiens, UniProt Q9NY46). To be noted: Table 26; IonWorks Quattro, use; […]; read-out: IWQ Use Nav1.3. (The patch-clamp technique gives a direct electrical read-out from membranes.)
A further test has as its target hNav1.5 (Homo sapiens, UniProt Q14524). Particulars: Table 26; IonWorks Quattro, use; […]; read-out: IWQ Use Nav1.5.
The next test deals with hNav1.7 (Homo sapiens, UniProt Q15858). The format is cell-based. Particulars: Table 26; IonWorks Quattro, use; […]; read-out: IWQ Use Nav1.7.
hNav1.7, sequence (Q15858 whole entry, looked up): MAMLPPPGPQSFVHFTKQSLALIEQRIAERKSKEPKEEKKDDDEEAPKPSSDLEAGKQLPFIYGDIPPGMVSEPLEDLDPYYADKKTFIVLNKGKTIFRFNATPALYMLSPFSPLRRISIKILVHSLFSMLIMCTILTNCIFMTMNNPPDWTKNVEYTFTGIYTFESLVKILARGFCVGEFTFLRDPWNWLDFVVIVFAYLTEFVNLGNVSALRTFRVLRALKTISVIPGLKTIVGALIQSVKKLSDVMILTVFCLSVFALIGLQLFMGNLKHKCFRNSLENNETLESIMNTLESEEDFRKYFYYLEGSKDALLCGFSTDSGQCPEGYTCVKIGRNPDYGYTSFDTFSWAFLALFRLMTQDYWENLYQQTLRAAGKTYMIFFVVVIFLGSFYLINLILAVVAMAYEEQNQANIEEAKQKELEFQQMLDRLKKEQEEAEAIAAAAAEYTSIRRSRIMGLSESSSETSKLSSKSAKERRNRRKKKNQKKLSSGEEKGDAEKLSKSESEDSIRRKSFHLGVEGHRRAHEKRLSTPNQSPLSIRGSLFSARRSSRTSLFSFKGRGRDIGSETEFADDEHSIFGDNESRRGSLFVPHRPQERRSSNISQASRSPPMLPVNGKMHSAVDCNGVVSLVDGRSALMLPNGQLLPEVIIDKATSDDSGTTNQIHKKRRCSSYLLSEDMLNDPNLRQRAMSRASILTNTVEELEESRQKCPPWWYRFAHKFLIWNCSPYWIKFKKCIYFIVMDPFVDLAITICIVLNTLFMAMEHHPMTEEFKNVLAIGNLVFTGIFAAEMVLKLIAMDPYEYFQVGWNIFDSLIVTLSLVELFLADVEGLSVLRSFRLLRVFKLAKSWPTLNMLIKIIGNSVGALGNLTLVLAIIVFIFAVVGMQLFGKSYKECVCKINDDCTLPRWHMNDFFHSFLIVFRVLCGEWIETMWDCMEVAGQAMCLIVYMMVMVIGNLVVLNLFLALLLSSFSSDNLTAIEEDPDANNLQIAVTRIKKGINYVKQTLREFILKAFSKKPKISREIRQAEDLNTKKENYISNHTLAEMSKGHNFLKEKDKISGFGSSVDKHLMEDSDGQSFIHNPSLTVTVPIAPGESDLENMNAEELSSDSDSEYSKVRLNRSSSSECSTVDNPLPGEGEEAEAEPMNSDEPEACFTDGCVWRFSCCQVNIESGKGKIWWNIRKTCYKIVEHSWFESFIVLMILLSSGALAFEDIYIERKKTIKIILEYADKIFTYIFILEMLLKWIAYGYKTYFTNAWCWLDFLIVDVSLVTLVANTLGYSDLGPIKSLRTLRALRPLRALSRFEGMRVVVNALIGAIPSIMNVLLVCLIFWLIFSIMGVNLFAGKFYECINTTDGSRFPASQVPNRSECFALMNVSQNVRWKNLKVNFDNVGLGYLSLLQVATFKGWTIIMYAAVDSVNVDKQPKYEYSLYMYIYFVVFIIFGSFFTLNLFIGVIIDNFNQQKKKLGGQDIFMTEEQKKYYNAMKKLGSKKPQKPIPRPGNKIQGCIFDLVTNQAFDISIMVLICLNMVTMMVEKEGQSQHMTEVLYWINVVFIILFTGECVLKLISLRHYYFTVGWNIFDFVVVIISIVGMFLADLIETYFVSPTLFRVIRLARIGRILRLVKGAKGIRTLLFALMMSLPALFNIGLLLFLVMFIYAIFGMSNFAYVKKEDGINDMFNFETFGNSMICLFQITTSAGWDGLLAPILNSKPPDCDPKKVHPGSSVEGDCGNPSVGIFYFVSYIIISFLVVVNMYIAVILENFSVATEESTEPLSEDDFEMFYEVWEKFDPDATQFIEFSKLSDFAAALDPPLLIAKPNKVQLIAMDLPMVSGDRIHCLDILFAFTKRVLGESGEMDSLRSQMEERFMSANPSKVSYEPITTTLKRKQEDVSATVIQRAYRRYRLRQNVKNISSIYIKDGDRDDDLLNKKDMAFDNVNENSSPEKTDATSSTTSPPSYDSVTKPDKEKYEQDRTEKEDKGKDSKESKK

hNav1.5, sequence (Q14524 whole entry, looked up): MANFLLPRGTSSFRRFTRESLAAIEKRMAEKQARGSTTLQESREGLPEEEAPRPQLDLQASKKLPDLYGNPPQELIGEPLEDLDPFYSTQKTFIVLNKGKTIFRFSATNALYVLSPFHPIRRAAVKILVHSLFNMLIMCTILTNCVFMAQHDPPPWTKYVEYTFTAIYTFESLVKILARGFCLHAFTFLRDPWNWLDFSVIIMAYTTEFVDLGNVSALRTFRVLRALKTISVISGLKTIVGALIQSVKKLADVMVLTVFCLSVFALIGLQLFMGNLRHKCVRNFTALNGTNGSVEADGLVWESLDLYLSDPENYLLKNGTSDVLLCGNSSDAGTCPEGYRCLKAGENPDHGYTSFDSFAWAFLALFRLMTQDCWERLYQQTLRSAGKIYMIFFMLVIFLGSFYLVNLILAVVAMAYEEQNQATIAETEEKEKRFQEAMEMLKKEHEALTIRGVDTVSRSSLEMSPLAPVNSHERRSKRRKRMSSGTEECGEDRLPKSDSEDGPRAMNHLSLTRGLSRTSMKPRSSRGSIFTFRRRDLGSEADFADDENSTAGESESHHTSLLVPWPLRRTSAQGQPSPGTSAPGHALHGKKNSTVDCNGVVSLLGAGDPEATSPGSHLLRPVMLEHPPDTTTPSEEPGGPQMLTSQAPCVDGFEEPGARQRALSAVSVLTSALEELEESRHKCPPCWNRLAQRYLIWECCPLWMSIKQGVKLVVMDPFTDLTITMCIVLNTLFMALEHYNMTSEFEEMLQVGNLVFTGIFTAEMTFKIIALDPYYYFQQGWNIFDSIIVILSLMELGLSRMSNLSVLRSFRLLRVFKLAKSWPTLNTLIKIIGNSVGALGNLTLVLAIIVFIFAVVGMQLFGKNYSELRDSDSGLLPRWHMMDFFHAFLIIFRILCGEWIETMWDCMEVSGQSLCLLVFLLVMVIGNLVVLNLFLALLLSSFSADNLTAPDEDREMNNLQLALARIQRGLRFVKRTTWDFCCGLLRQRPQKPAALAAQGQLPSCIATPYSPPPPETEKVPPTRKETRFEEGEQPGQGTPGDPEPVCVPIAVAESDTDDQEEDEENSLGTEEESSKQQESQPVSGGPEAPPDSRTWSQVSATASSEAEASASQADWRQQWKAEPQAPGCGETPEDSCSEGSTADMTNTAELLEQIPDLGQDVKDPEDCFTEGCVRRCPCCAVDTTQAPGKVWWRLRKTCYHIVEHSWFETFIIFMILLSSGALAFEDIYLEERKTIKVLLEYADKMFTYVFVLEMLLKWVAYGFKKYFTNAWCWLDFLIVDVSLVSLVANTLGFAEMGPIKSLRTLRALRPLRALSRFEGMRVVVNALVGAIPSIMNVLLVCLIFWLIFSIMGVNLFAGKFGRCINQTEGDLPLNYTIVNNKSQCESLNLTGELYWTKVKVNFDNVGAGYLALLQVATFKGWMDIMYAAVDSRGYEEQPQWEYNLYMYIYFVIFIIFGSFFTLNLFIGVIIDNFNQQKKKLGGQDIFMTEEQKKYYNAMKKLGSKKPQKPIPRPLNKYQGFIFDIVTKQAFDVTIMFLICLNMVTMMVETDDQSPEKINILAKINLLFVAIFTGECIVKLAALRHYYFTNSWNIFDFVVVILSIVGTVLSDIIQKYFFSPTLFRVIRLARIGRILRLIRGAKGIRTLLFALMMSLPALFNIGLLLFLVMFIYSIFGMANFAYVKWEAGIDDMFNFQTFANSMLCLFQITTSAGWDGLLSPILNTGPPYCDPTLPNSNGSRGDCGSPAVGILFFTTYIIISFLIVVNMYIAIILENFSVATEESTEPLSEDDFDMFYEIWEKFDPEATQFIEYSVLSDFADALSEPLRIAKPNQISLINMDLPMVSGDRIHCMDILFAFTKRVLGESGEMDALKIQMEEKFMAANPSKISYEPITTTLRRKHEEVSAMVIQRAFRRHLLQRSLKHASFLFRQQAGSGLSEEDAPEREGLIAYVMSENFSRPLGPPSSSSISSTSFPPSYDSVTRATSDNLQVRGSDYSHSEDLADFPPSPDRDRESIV

Regarding `CC[C@H](C)[C@@H]1NC(=O)[C@@H]2CSSC[C@@H]3NC(=O)[C@H](C(C)C)NC(=O)[C@H](CC(C)C)NC(=O)[C@H](CC(N)=O)NC(=O)[C@@H]4CCCN4C(=O)[C@H](CCCNC(=N)N)NC(=O)[C@H](CSSC[C@H](NC(=O)[C@@H](N)CC(=O)O)C(=O)N[C@@H](CC(C)C)C(=O)NCC(=O)N[C@@H](Cc4ccccc4)C(=O)N[C@@H](CCSC)C(=O)N[C@@H](CCCNC(=N)N)C(=O)N[C@@H](CCCCN)C(=O)N2)NC(=O)[C@H](CSSC[C@@H](C(=O)N[C@@H](CCCCN)C(=O)N[C@@H](Cc2ccc(O)cc2)C(=O)N[C@@H](Cc2c[nH]cn2)C(=O)N[C@@H](Cc2ccccc2)C(N)=O)NC(=O)[C@H](Cc2c[nH]c4ccccc24)NC(=O)[C@H](CCCCN)NC(=O)[C@H](Cc2c[nH]cn2)NC(=O)[C@H]([C@@H](C)O)NC(=O)[C@H](CCCNC(=N)N)NC(=O)[C@H](CO)NC3=O)NC(=O)[C@H](CCCCN)NC(=O)[C@H](CC(=O)O)NC(=O)[C@H](CC(N)=O)NC(=O)[C@H](CC(=O)O)NC(=O)[C@@H]2CCCN2C1=O` [compound 392] (H-DCLGFMRKCIPDNDKCCRPNLVCSRTHKWCKYHF-NH2; disulfide 2-17, 9-23, 16-30), the pIC50 at hNav1.3 was 8.00; at hNav1.5 it was 5.09; at hNav1.7, 7.70.
The matching figures for `CC[C@H](C)[C@@H]1NC(=O)[C@@H]2CSSC[C@@H]3NC(=O)[C@H](C(C)C)NC(=O)[C@H](CC(C)C)NC(=O)[C@H](CC(N)=O)NC(=O)[C@@H]4CCCN4C(=O)[C@H](CCCNC(=N)N)NC(=O)[C@H](CSSC[C@H](NC(=O)[C@@H](N)CC(=O)O)C(=O)N[C@@H](CC(C)C)C(=O)NCC(=O)N[C@@H](Cc4ccccc4)C(=O)N[C@@H](CCSC)C(=O)N[C@@H](CCCNC(=N)N)C(=O)N[C@@H](CCCCN)C(=O)N2)NC(=O)[C@H](CSSC[C@@H](C(=O)N[C@@H](CCCCN)C(=O)N[C@@H](Cc2ccc(O)cc2)C(=O)N[C@H](C(=O)N[C@@H](Cc2ccccc2)C(N)=O)c2ccccc2)NC(=O)[C@H](Cc2c[nH]c4ccccc24)NC(=O)[C@H](CCCCN)NC(=O)[C@H](Cc2c[nH]cn2)NC(=O)[C@H]([C@@H](C)O)NC(=O)[C@H](CCCNC(=N)N)NC(=O)[C@H](CO)NC3=O)NC(=O)[C@H](CCCCN)NC(=O)[C@H](CC(=O)O)NC(=O)[C@H](CC(N)=O)NC(=O)[C@H](CC(=O)O)NC(=O)[C@@H]2CCCN2C1=O` [compound 393] (H-DCLGFMRKCIPDNDKCCRPNLVCSRTHKWCKY[Phg]F-NH2; disulfide 2-17, 9-23, 16-30): 7.40, 5.12 and 7.70.
The matching figures for `CC[C@H](C)[C@@H]1NC(=O)[C@@H]2CSSC[C@@H]3NC(=O)[C@H](C(C)C)NC(=O)[C@H](CC(C)C)NC(=O)[C@H](CC(N)=O)NC(=O)[C@@H]4CCCN4C(=O)[C@H](CCCNC(=N)N)NC(=O)[C@H](CSSC[C@H](NC(=O)[C@@H](N)CC(=O)O)C(=O)N[C@@H](CC(C)C)C(=O)NCC(=O)N[C@@H](Cc4ccccc4)C(=O)N[C@@H](CCSC)C(=O)N[C@@H](CCCNC(=N)N)C(=O)N[C@@H](CCCCN)C(=O)N2)NC(=O)[C@H](CSSC[C@@H](C(=O)N[C@@H](CCCCN)C(=O)N[C@@H](Cc2ccc(O)cc2)C(=O)N[C@@H](CC(N)=O)C(=O)N[C@@H](Cc2ccccc2)C(N)=O)NC(=O)[C@H](Cc2c[nH]c4ccccc24)NC(=O)[C@H](CCCCN)NC(=O)[C@H](Cc2c[nH]cn2)NC(=O)[C@H]([C@@H](C)O)NC(=O)[C@H](CCCNC(=N)N)NC(=O)[C@H](CO)NC3=O)NC(=O)[C@H](CCCCN)NC(=O)[C@H](CC(=O)O)NC(=O)[C@H](CC(N)=O)NC(=O)[C@H](CC(=O)O)NC(=O)[C@@H]2CCCN2C1=O` [compound 394] (H-DCLGFMRKCIPDNDKCCRPNLVCSRTHKWCKYNF-NH2; disulfide 2-17, 9-23, 16-30): 7.15, 5.10 and 6.44.
